For the series the following is noted: Liquid, Closed cell (Static) method.

Data on one molecule can be found in the NIST ThermoML archive (doi:10.1016/j.fluid.2013.01.017).

± gives the expanded uncertainty stated by the source.

Usually vapor or sublimation pressure stands for the pressure of vapour in equilibrium with the condensed phase.

In the case of `FC(F)(F)C(F)(F)C(F)(F)C(F)(F)C(F)(F)C(F)(F)C(F)(F)C(F)(F)F` [octadecafluorooctane], the “vapor or sublimation pressure” value reads like this: (308.45 K) 6.1 ± 12 kPa; (318.42 K) 10.1 ± 12 kPa; (323.48 K) 12.8 ± 12 kPa; (328.48 K) 16 ± 12 kPa; (338.43 K) 24.3 ± 12 kPa.
